Test results: patent publication US20030096379A1, “Method for producing tryptamine derivatives” (priority 2001, published 2003)

T1: synAAAD (synthetic gene based on pkAAAD protein sequence) (Sus scrofa, UniProt P80041)
T1 construct: made in house; host or cells: E. coli (pET-15 vector)
T1 sequence (P80041 1-486): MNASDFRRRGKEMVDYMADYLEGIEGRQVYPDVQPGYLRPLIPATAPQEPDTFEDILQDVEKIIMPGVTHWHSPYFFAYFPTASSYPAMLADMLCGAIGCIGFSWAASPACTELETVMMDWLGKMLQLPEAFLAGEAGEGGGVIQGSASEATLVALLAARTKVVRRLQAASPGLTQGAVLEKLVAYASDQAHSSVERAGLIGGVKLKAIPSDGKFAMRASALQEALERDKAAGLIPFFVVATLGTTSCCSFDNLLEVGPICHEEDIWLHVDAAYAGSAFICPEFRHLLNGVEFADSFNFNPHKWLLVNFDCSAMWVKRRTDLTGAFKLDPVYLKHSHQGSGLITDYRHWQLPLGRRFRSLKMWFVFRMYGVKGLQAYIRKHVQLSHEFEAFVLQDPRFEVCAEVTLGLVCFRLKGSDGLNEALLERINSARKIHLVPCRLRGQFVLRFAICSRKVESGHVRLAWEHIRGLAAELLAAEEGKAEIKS

T2: pig kidney aromatic amino acid decarboxylase (pkAAAD) (Sus scrofa, UniProt P80041)
T2 construct: Frozen tissue was partially thawed in lysis buffer, then it was extracted and partially purified; from tissue; host or cells: pig kidney
T2 sequence (P80041 1-486): T1 sequence (P80041 1-486)

B1: synAAAD: enzyme from synthetic gene optimized for E. coli expression, based on the pkAAAD protein sequence (protein, UniProt P80041 1-486, looked up)
Aromatic-L-amino-acid …: T1 sequence (P80041 1-486)
modifications: codon-optimized synthetic gene
B2: pkAAAD: aromatic amino acid decarboxylase extracted from pig kidney tissue, E.C. 4.1.1.28 (protein, UniProt P80041 1-486, looked up)
Aromatic-L-amino-acid …: T1 sequence (P80041 1-486)

Tests used:
[1] = molecular target: T1, synAAAD (synthetic gene based on pkAAAD protein sequence); assay: Substrate screen for tryptophan decarboxylation, SynAAAD; type: biochemical; parameters: key: +: a clear ninhydrin-positive spot at the Rf of standard tryptophan derivatives after 16-65 h; (+): a weak spot in the product region; −: no product observed; NR: experiment not run; settings: tryptophan derivative, PLP, pH 7.5, 37° C.
Protocol: A mixture containing 1 μmole of the tryptophan derivative, 0.05 μmole of PLP and 50 μmol of L-serine in 40 mM pH 7.5 KPi buffer was warmed to 37° C., then enzyme solution was added to give a final volume of 1 mL. Aliquots (100 HL) were quenched at intervals and were evaporated in a Savant Speed-vac as in Example 6. For TLC analysis, CH2Cl2/EtOH/H2O/HOAc 49:49:1:1 was used as the solvent. The plates were visualized with short-wave UV light and ninhydrin as in Example 6.
HPLC techniques were used to monitor the decarboxylation of substituted tryptophans. Mass spectral analysis of the collected HPLC peaks was used to confirm the identity of several tryptamine derivatives, as shown in Table 5.

[2] = molecular target: T2, pig kidney aromatic amino acid decarboxylase (pkAAAD); assay: Substrate screen for tryptophan decarboxylation, pkAAAD; type: biochemical; parameters: key: +: a clear ninhydrin-positive spot at the Rf of standard tryptophan derivatives after 16-65 h; (+): a weak spot in the product region; −: no product observed; NR: experiment not run; settings: tryptophan derivative, PLP, pH 7.5, 37° C.
[3] = molecular target: T3, E. coli DH5α tryptophan synthase (TrpBA) (Escherichia coli, UniProt P0A879); type: biochemical; parameters: key: +: a clear ninhydrin-positive spot at the Rf of standard tryptophan derivatives after 16-65 h; (+): a weak spot in the product region; −: no product observed; NR: experiment not run; settings: indole derivative + L-serine + PLP, 37° C., 16-65 h, ninhydrin
T3 construct: made in house; host or cells: E. coli LMG194 (pBAD) or BL-21 (pET)
Protocol: (§1) A mixture containing 2 μmole of the indole derivative, 0.05 μmole of PLP and 50 μmol of L-serine in 40 mM KPi buffer in 8% v/v ethanol water, pH 7.5, was warmed to 37° C., then enzyme solution was added to give a final volume of 1 mL. Aliquots (100 μL) were quenched at intervals of 2, 6, and 24 hours or more in microcentrifuge capsules containing 25 μL of 6 M HCl. The quenched samples were evaporated in a Savant Speed-vac. The residues were resuspended in methanol/water (1:1, 50 μL) and analyzed by TLC on Silica gel GF254 plates alongside tryptophan and tryptamine standards, eluting with CH2Cl2/EtOH/H2O/HOAc 77:20:2:1. Products were visualized first by using short-wave UV light, then with ninhydrin spray reagent (1/1/98 w/v/v ninhydrin/HOAc/EtOH) followed by heating.
(§2) Substituted indoles were incubated with L-serine, PLP and enzyme (TrpBA or TnA) prior to TLC analysis as generally described in Example 6. Serine, which can be used instead of pyruvate and ammonia for tryptophan synthesis with TnA, was employed as the 3-carbon acid because pyruvate tended to obscure the tryptophan product spots when plates were visualized with ninhydrin. TnA-catalyzed formation of tryptophan was also faster when serine was the 3-carbon donor. Reaction rates for several substrates were also estimated by HPLC.
(§3) In Table 4, “+” indicates a clear ninhydrin-positive spot at the Rf of standard tryptophan derivatives after 16-65 h; “(+)” indicates a weak spot in the product region; “−” means no product observed, “NR” means experiment not run. ESMS=electrospray mass spectrometry. Unless otherwise indicated, the mass value given represents the singly-protonated molecular ion (M+1).

tryptophanase (TnA) = molecular target: T4, tryptophanase (TnA) (Escherichia coli, UniProt P0A853); type: biochemical, E. coli; parameters: key: +: a clear ninhydrin-positive spot at the Rf of standard tryptophan derivatives after 16-65 h; (+): a weak spot in the product region; −: no product observed; NR: experiment not run; settings: indole derivative + L-serine + PLP, 37° C., 16-65 h, ninhydrin
T4 construct: made in house; host or cells: E. coli LMG194 (pBAD) or BL-21 (pET)
Protocol: as §1, §2, §3

[4] = Decarboxylase activity of the enzyme preparations (Ehrlich's reagent); type: biochemical
Protocol: Tryptophan synthase activity was assayed by monitoring the increase in absorbance at 290 nm of a mixture containing serine, indole and PLP (Higgins, W., et al., Biochemistry, 1979, 18, 4827). TnA-catalyzed tryptophan synthesis was also measured by the 290 nm assay, while the tryptophan lyase reaction rate was measured by monitoring the reduction in NADH in reaction mixtures containing L-tryptophan and lactate dehydrogenase, indicating the amount of pyruvate released. Tryptophan decarboxylase was assayed colorimetrically by monitoring the sabsorbance at 580 nm produced by serotonin (AAADs) or tryptamine (TDCs) following treatment of reaction aliquots with Ehrlich's reagent (4-N,N-(dimethyl)aminobenzaldehyde in ethanolic HCl; Nakazawa, H.; Kumagi, H.; Yamada, H. Biochem Biophys. Res. Commun., 1974, 61, 75-82). Serotonin could be detected with approximately 5-fold higher sensitivity by this method as compared with tryptamine. The Ehrlich reagent assay using a microtiter plate format for simultaneous analysis of multiple enzyme samples may also be used. HPLC analysis was performed on acid-quenched reaction aliquots by using a base-deactivated C8 reversed-phase support (Shandon Hypersil BD8). HPLC analysis of acid-quenched aliquots permitted calculation of a rate ratio of 4.5 to 1 for pkAAAD-catalyzed DOPA decarboxylation relative to that of L-5-hydroxytryptophan, in good agreement with the accepted ratio of approximately 5:1. (See Sourkes, T. L. Methods Enzymol., 1987, 142, 170-178, which is incorporated herein by reference.)
A mixture (0.95 mL) containing L-5-hydroxytryptophan (2 mM), PLP (0.25 mM) and pH 7.5 KPi buffer (44 mM) was warmed to 37° C., then 50 μL of enzyme was added. Reaction aliquots were quenched in microcentrifuge capsules containing 50 μL each of 6M HCl to quench the enzyme reaction at 2, 5, and 20 min. Quenched aliquots were heated at 50° C. for 40 min with 750 μL each of Ehrlich's reagent (2:24:74 w/v/v […]: conc HCl: ethanol). Absorbance was read at 580-nm and compared with standards of serotonin (10-250 μM) or tryptamine (50 to 2000 μM).
Decarboxylase enzyme activity was determined using L-5-hydroxytryptophan as the substrate unless otherwise stated.

[5] = Table 2, L-5-hydroxytryptophan as substrate

T3 sequence (P0A879 whole entry): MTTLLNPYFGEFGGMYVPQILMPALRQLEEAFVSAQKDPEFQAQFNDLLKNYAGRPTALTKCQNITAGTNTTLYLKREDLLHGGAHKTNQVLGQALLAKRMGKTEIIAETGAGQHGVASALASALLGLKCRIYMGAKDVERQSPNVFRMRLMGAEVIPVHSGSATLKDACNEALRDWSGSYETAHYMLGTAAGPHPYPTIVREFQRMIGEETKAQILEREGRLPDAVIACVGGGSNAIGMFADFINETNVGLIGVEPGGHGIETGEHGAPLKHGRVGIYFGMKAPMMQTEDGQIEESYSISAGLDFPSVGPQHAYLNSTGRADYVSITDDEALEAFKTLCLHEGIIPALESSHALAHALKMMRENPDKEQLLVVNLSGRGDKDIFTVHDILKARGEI
T3 sequence (P0A877 whole entry, further chain): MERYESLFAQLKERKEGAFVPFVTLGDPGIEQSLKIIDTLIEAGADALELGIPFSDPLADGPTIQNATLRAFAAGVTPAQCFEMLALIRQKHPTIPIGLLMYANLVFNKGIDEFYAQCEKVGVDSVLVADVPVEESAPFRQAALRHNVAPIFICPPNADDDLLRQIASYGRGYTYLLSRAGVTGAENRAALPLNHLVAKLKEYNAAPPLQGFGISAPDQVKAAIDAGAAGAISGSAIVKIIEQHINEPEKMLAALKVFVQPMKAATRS
T4 sequence (P0A853 whole entry): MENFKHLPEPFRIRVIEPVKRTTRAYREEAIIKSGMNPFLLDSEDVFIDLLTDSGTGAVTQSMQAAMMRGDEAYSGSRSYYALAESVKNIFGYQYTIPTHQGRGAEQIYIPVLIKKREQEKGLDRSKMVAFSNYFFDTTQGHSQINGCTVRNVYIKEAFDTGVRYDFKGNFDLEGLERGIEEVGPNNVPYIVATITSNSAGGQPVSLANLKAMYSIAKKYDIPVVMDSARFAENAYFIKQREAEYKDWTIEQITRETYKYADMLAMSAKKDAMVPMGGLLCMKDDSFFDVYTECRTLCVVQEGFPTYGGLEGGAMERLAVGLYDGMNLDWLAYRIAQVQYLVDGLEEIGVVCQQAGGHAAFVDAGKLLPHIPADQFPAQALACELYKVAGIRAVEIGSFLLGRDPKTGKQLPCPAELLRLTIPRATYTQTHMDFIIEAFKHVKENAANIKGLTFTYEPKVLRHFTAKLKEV

Molecule	TrpBA (tryptophan product spot, TLC analysis) [3]	TnA (tryptophan product spot, TLC analysis) (tryptophanase (TnA))	other results
COc1ccc2[nH]cc(CC(N)C(=O)O)c2c1 (racemic) [DL-5-methoxy-trp]			SynAAAD (decarboxylation substrate screen) [1]: (+)
NC(Cc1c[nH]c2ncccc12)C(=O)O (racemic) [DL-7-aza-trp]			pkAAAD (decarboxylation substrate screen) [2]: −; SynAAAD (decarboxylation substrate screen) [1]: −
Cc1ccc2[nH]c(C)cc2c1 [2,5-dimethyl-]	+	−	
Nc1cccc2[nH]ccc12 [4-amino-]	+	+	
Oc1cccc2[nH]ccc12 [4-hydroxy]	+	+	
O=[N+]([O-])c1cccc2[nH]ccc12 [4-nitro-]	−	−	
Nc1ccc2[nH]ccc2c1 [5-amino-]	−	−	
O=C(O)c1cc2cc(Br)ccc2[nH]1 [5-bromoindole-2-carboxylic acid]	−		
Clc1ccc2[nH]ccc2c1 [5-chloro-]	+	+	
N#Cc1ccc2[nH]ccc2c1 [5-cyano-]	−	−	
Oc1ccc2[nH]ccc2c1 [5-hydroxy-]	+	+	
COc1ccc2[nH]c(C)cc2c1 [5-methoxy-2-methyl-]	+	−	
O=[N+]([O-])c1ccc2[nH]ccc2c1 [5-nitro-]	−	−	
Clc1ccc2cc[nH]c2c1 [6-chloroindole]	−	+	
Fc1ccc2cc[nH]c2c1 [6-fluoroindole]	+	(+)	
COc1ccc2cc[nH]c2c1 [6-methoxyindole]	+	(+)	
Clc1cccc2cc[nH]c12 [7-chloro]	+	−	
O=C(O)c1ccc2[nH]ccc2c1 [Indole-5-carboxylic acid]	−	−	
N[C@@H](Cc1c[nH]c2ccc(CO)cc12)C(=O)O [L-5-(hydroxymethyl)-trp]			SynAAAD (decarboxylation substrate screen) [1]: −
indoxyl acetate [4-acetoxy-[indoxyl acetate]]	+	+	
B1			Crude specific activity [4, 5]: 0.18 units/mg; Purified specific activity [4, 5]: 0.3 Units/mg; Crude specific activity ([4]; Table 3, decarboxylases): 0.18 units/mg; specific activity in crude extracts ([4]; crude extracts): 0.1-0.2 units/mg
B2			Crude specific activity [4, 5]: 0.05 units/mg; Purified specific activity [4, 5]: 0.2 Units/mg; Crude specific activity ([4]; Table 3, decarboxylases): 0.05 units/mg
